Experiments:
[1] = target: T1, human adenosine A2A receptors (Homo sapiens, UniProt P29274); assay: Adenosine receptor binding: binding affinities at hA2A receptors ([3H]CGS-21680 displacement); conditions: for Ki: displacement of [3H]CGS-21680, HEK-293 cell membranes; for A2A/A1 selectivity ratio (Ki A2A/Ki A1): ratio of measured Ki values at hA2A and hA1
T1 construct: host or cells: HEK-293
Description: Adenosine Receptor Binding: Binding Affinities at hA2A Receptors
The compounds were examined in an assay measuring in vitro binding to human adenosine A2A receptors by determining the displacement of the adenosine A2A receptor selective radioligand 4-[2-[[6-Amino-9-(N-ethyl-β-D-ribofuranuronamidosyl)-9H-purin-2-yl]amino]ethyl]benzenepropanoic acid hydrochloride ([^3H]CGS-21680) using standard techniques. See, for example, Jarvis et al., J Pharmacol Exp Ther., 251(3):888-93, which is incorporated by reference in its entirety.
Frozen HEK-293 cells were homogenized in 65 mL of 50 mM Tris HCl buffer (pH 7.5) containing 10 mM MgCl2, and 0.1 IU/mL adenosine deaminase per pellet using a Ultra-Turrax homogenizer. The resultant homogenate was kept for immediate use in the binding assay.
(§1) Binding assays were performed in a total volume of 250 μL, containing [^3H]-CGS21680 (20.0 nM), membranes and additional drugs. Total binding was determined using drug dilution buffer (50 mM Tris-HCl pH 7.5, 10 mM MgCl2, 5% DMSO). Non-specific binding was determined using 300 μM CHA. Following incubation for 90 minutes at 21° C., assays were terminated by rapid filtration with GF/B filters (presoaked in 0.1% (w/v) polyethylenimine) using a Canberra Packard filtermate 196, washed 3 times with ice-cold Tris-HCl (pH 7.4). Filters were left to dry overnight, and Microscint-0 scintillation fluid was then added to the filters. The filters were then left for at least 2 hours before the radioactivity was assessed using a Canberra Packard TopCount microplate scintillation counter.
To determine the free ligand concentration, three vials were counted with 25 μL of [^3H]CGS21680 containing 4 mL of Ultima-Gold MV scintillant on a Beckman LS6500 multi-purpose scintillation counter.
(§2) Data was analysed using a 4 parameter logistical equation and non-linear regression which yields affinity constants (pIC50), and slope parameters:
where E is the quantity of binding and [A] is the competitor concentration. The Ki is then determined using the Cheng-Prusoff equation: […]

[2] = target: T2, human adenosine A1 receptors (Homo sapiens, UniProt P30542); assay: Adenosine receptor binding: binding affinities at hA1 receptors ([3H]DPCPX displacement); conditions: displacement of [3H]DPCPX, membranes of CHO-K1 cells transfected with human A1
T2 construct: expressed in transfected cells; host or cells: CHO-K1
T2 sequence (P30542 1-326): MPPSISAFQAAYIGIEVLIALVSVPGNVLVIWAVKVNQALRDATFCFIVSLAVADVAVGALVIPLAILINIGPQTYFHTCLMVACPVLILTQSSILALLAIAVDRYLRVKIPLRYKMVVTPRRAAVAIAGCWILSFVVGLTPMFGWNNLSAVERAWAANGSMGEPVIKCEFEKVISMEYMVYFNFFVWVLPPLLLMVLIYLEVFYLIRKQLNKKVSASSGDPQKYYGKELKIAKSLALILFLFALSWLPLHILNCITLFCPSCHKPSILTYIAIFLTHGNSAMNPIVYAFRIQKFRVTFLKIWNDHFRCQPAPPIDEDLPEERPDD
Description: Adenosine Receptor Binding: Binding Affinities at hA1 Receptors
The compounds were examined in an assay measuring in vitro binding to human adenosine A1 receptors by determining the displacement of the adenosine A1 receptor selective radioligand 8-Cyclopentyl-1,3-dipropylxanthine ([^3H]DPCPX) using standard techniques. See, for example, Lohse M J, et al., (1987), 8-Cyclopentyl-1,3-dipropylxanthine (DPCPX)—a selective high affinity antagonist radioligand for A1 adenosine receptors. Naunyn Schmiedebergs Arch Pharmacol., 336(2):204-10, which is incorporated by reference in its entirety.
as §1, with “Frozen CHO-K1 cells (transfected with a human adenosine A1 recepter expression vector) were homogenized in 130 mL of 50 mM Tris HCl buffer (pH 7.5) containing 10 mM MgCl2, and 0.1 IU/mL adenosine deaminase per pellet using a Ultra-Turrax homogeniser. The resultant homogenate was kept for immediate use in the binding. Binding” for “Binding”, “[^3H]-DPCPX (3.0” for “[^3H]-CGS21680 (20.0”, “pH:7.5,” for “pH 7.5,”, “N6-cyclohexyladenosine (CHA).” for “CHA.”
To determine the free ligand concentration, three vials were counted with 25 μL of [^3H]DPCPX containing 4 mL of Ultima-Gold MV scintillant on a Beckman LS6500 multi-purpose scintillation counter.
as §2
where E is the quantity of binding and [A] is the competitor concentration. The K, is then determined using the Cheng-Prusoff equation: […]

[3] = cited from earlier work
[4] = cited from earlier work; remark: listed apart in the source

T1 sequence (P29274 whole entry): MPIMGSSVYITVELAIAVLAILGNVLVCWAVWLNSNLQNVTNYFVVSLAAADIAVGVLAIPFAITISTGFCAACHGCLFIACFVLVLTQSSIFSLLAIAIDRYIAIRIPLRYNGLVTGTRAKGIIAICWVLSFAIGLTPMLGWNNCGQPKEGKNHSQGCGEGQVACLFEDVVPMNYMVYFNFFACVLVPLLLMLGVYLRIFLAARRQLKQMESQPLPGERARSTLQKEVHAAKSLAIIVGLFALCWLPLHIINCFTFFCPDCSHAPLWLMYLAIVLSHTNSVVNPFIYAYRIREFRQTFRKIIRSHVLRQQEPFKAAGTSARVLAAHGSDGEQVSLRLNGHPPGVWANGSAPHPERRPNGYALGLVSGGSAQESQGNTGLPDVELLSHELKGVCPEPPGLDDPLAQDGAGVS

| Ki [1] [µM] | A2A/A1 selectivity ratio (Ki A2A/Ki A1) [1] | Ki [2] [µM] | Structure (SMILES) | also measured |
| --- | --- | --- | --- | --- |
| ≤ 0.1 | H (more than 20) | 0.1 to 1 | Cc1ccc(Cn2nnc3c(-c4ccco4)nc(N)nc32)cc1NS(=O)(=O)O [5-[(5-amino-7-(furan-2-yl)-3H-[1,2,3]triazolo[4,5-d]pyrimidin-3-yl)methyl]-2-methylphenylsulfamic acid] | – |
| ≤ 0.1 | H (more than 20) | 1 to 10 | Cc1ccc(Cn2nnc3c(-c4cccs4)nc(N)nc32)cc1NS(=O)(=O)O [5-[(5-amino-7-(thiophen-2-yl)-3H-[1,2,3]triazolo[4,5-d]pyrimidin-3-yl)methyl]-2-methylphenylsulfamic acid] | – |
| ≤ 0.1 | G (10 to 20) | 0.1 to 1 | Cc1ccc(Cn2nnc3c(-c4ccccc4)nc(N)nc32)cc1NS(=O)(=O)O [5-[(5-amino-7-phenyl-3H-[1,2,3,]triazolo[4,5-d]pyrimidin-3-yl)methyl]-2-methylphenylsulfamic acid] | – |

The remaining lines, values behind:

| Structure (SMILES) | Ki [1] [µM] | A2A/A1 selectivity ratio (Ki A2A/Ki A1) [1] | Ki [2] [µM] | also measured |
| --- | --- | --- | --- | --- |
| COc1cc(NS(=O)(=O)O)ccc1Cn1nnc2c(-c3ccccc3)nc(N)nc21 [4-[(5-amino-7-phenyl-3H-[1,2,3]triazolo[4,5-d]pyrimidin-3-yl)methyl]-3-methoxyphenylsulfamic acid] | 1 to 10 | F (5 to 10) | > 10 | – |
| COc1ccccc1-c1nc(N)nc2c1nnn2Cc1ccc(C)c(NS(=O)(=O)O)c1 [5-[(5-amino-7-(2-methoxyphenyl)-3H-[1,2,3]triazolo[4,5-d]pyrimidin-3-yl)methyl]-2-methylphenylsulfamic acid] | 1 to 10 | E (less than 5) | 1 to 10 | – |
| Cc1ccc(-c2nc(N)nc3c2nnn3Cc2ccc(C)c(NS(=O)(=O)O)c2)o1 [5-[(5-amino-7-(5-methylfuran-2-yl)-3H-[1,2,3]triazolo[4,5-d]pyrimidin-3-yl)methyl]-2-methylphenylsulfamic acid] | ≤ 0.1 | H (more than 20) | 0.1 to 1 | – |
| CCCn1c(=O)c2c(nc(/C=C/c3ccc(OC)c(OC)c3)n2C)n(CCC)c1=O [KF 17837, E-8-(3,4-dimethoxystyryl)-1,3-dipropyl-7-methylxanthine] | – | – | – | anticataleptic effects of a subthreshold dose of L-DOPA plus benserazide ([3]; in vivo): potentiated; catalepsy induced by haloperidol and reserpine ([3]; in vivo): reduced; cataleptic responses induced by intracerebroventricular CGS 21680 ([3]; oral administration): significantly ameliorated |
| Cn1c(=O)c2[nH]cnc2n(C)c1=O [Theophylline, 1,3-dimethylxanthine] | – | – | – | serum theophylline levels ([4]; 150 mg/day slow release oral, after one week, Parkinsonian patients): 4.44 mg/L; mean objective disability scores ([4]; 15 Parkinsonian patients, up to 12 weeks, 150 mg/day): significant improvements; patients reporting moderate or marked subjective improvement ([4]; of 15 Parkinsonian patients, up to 12 weeks, 150 mg/day): 11 |

Source: US20100173914A1, “PHARMACEUTICALS, COMPOSITIONS AND METHODS OF MAKING AND USING THE SAME” (priority 2007, published 2010)
